{
  "source": "patent US6380231B1",
  "about": "(priority 1995, dated 2002)",
  "data": [
    {"smiles": "CO/C=C(/C(=O)OC)c1ccccc1COc1ncn(-c2ccccc2Cl)n1", "note": "[Compound 12, Methyl α-(2-(N′-(o-chlorophenyl)-triazolyl-3′-oxymethyl)-phenyl)-β-methoxyacrylate]", "values": [
      {"measurement": "melting point", "result": 120, "unit": "°C"}
    ]}
  ]
}
